Results on four compounds are retold here after ChEMBL document CHEMBL3124766, “Metabolomics Reveal d-Alanine:d-Alanine Ligase As the Target of d-Cycloserine in Mycobacterium tuberculosis” (ACS Med Chem Lett, 2013).

Active and inactive are the calls of the source. The rule behind the calls is not given here.

For data set [1], the target named is T1, D-alanine--D-alanine ligase (Mycobacterium tuberculosis) (UniProt P9WP31).
T1 sequence (whole entry): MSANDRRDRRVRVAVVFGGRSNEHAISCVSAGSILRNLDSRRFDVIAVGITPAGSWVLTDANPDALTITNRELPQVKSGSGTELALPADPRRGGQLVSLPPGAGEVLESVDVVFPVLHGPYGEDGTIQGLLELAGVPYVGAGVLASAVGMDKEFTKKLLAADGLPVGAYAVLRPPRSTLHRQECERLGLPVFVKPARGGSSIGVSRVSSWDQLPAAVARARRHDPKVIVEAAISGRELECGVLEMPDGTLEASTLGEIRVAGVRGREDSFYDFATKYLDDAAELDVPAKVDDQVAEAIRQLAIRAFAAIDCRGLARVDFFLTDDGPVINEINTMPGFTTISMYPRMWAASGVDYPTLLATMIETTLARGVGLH
Nature of the data set: Inhibition of D-alanine-D-alanine ligase in Mycobacterium tuberculosis H37Rv assessed as depletion in D-Alanyl-D-alanine level preincubated for 16 hrs measured post 24 hrs of compound washout.

The target of data set [2] is T2, Alanine racemase (Mycobacterium tuberculosis) (UniProt P9WQA9).
T2 sequence (whole entry): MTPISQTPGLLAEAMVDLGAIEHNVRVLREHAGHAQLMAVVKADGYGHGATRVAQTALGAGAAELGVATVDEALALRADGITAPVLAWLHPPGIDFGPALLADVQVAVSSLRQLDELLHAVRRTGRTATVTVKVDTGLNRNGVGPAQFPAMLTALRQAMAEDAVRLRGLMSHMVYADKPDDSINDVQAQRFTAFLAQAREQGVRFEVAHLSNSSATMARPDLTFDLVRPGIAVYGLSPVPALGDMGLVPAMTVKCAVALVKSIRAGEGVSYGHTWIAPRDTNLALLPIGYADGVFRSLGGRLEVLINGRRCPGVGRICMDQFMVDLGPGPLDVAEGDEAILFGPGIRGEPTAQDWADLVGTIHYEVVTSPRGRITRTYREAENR
Nature of the data set: Inhibition of alanine racemase in Mycobacterium tuberculosis H37Rv at 5 times MIC preincubated for 16 hrs followed by compound re-addition with L-Ala-[13C]-[3H] measured over 8 hrs by LC-MS/MS analysis.

Data set [3] deals with T1, D-alanine--D-alanine ligase (Mycobacterium tuberculosis). Nature of the data set: Inhibition of D-alanine-D-alanine ligase in Mycobacterium tuberculosis H37Rv assessed as inhibition of denovo D-Alanyl-D-alanine synthesis at 2 times MIC preincubated for 16 hrs followed L-Ala-[13C]-[3H] addition measured over 8 hrs by LC-MS/MS analysis.
The target is the same in data set [4]. Description: Competitive inhibition of D-alanine-D-alanine ligase in Mycobacterium tuberculosis H37Rv at MIC preincubated for 16 hrs followed by D-Ala-[2H] addition measured over 8 hrs by LC-MS/MS analysis.
In data set [5] the test system is Mycobacterium tuberculosis. Description: Antimycobacterial activity against Mycobacterium tuberculosis H37Rv at 0.25 to 16 times MIC after 7 days in presence of L-Alanine. Format: functional, organism-based.
In data set [6] the test system is Mycobacterium tuberculosis. Nature of the data set: Antimycobacterial activity against Mycobacterium tuberculosis H37Rv at 0.25 to 16 times MIC after 7 days in presence of D-Alanine. In kind it is functional, organism-based.
The subject of data set [7] is Mycobacterium tuberculosis. Nature of the data set: Ratio of MIC for Mycobacterium tuberculosis H37Rv in presence of D-Alanine to MIC for Mycobacterium tuberculosis H37Rv. Format: functional.
Data set [8] relates to Mycobacterium tuberculosis. Nature of the data set: Reduction in intracellular total Alanine pool size in Mycobacterium tuberculosis H37Rv at 0.25 to 5 times MIC by filter-based technique. Format: functional, organism-based.
Data set [9] concerns the target T1, D-alanine--D-alanine ligase (Mycobacterium tuberculosis). Nature of the data set: Inhibition of D-alanine-D-alanine ligase in Mycobacterium tuberculosis H37Rv assessed as inhibition of denovo D-Alanyl-D-alanine synthesis at MIC preincubated for 16 hrs followed by L-Ala-[13C]-[3H] addition measured over 8 hrs by LC-MS/MS analysis.
Data set [10] deals with Mycobacterium tuberculosis. Nature of the data set: Reduction in intracellular dipeptide D-alanyl-D-alanine pool size in Mycobacterium tuberculosis H37Rv up to 5 times MIC by filter-based mass spectrometry technique. Format: functional, organism-based.
Data set [11] concerns Mycobacterium tuberculosis. Nature of the data set: Reduction in intracellular dipeptide D-alanyl-D-alanine pool size in Mycobacterium tuberculosis H37Rv at MIC by filter-based mass spectrometry technique. Format: functional, organism-based.
For data set [12], the system named is Mycobacterium tuberculosis. Nature of the data set: Reduction in intracellular total Alanine pool size in Mycobacterium tuberculosis H37Rv at MIC by filter-based mass spectrometry technique. In kind it is functional, organism-based.
The nature of data set [13]: Drug metabolism in Mycobacterium tuberculosis H37Rv assessed as compound remaining at 0.25 to 5 times MIC for 16 hrs measured 15 to 60 mins post compound washout. In kind it is ADME, organism-based. The settings on record: Mycobacterium tuberculosis H37Rv cells, read-out: Stability.

As for `N[C@@H]1CONC1=O` [CYCLOSERINE], in data set [1], the inhibition result is “Dose-dependent effect”. The inhibition result in data set [2] is “inactive”. Moreover, the inhibition entry in [3] and in data set [9] was “Active” each time. Further, the outcome in data set [4] and in [6] was inactive. For the same compound, the result in [5] and in [8] was Active. Moreover, in data set [7], the Ratio was determined as 2. Besides, in [10], the Activity entry was “Dose-dependent effect”.

On to `N[C@H]1CONC1=O` [LEVCYCLOSERINE], for which the outcome in data set [5] and in data set [6] was inactive. Also, the result in data set [11] and in data set [12] was Active. For the same compound, the Ratio in [7] turned out to be 4.

On to `CN[C@@H]1[C@H](O[C@H]2[C@H](O[C@H]3[C@H](O)[C@@H](O)[C@H](N=C(N)N)[C@@H](O)[C@@H]3N=C(N)N)O[C@@H](C)[C@]2(O)C=O)O[C@@H](CO)[C@H](O)[C@H]1O`, for which the result in data set [10] was inactive.

As for `N[C@@H]1CON=C1O` [CYCLOSERINE], the remaining at 16 h in [13] is less than 10%.
